Results published in patent US20070249706A1, “USE OF CERTAIN BIPHENYL COMPOUNDS FOR PROTECTION OF NEURONS AND OLIGODENDROCYTES IN THE TREATMENT OF MULTIPLE SCLEROSIS (MS)” (AVENTIS PHARMACEUTICALS INC., priority 2004, published 2007).
pIC50: −log10 of the molar value.

Legend:
ERα = target: T1, ERα (Homo sapiens, UniProt P03372); assay: Fluorescence Polarization Competition Assay, ERα binding (Panvera kit); conditions: first ER column
T1 construct: purchased Panvera P2698
T1 sequence (P03372 1-595): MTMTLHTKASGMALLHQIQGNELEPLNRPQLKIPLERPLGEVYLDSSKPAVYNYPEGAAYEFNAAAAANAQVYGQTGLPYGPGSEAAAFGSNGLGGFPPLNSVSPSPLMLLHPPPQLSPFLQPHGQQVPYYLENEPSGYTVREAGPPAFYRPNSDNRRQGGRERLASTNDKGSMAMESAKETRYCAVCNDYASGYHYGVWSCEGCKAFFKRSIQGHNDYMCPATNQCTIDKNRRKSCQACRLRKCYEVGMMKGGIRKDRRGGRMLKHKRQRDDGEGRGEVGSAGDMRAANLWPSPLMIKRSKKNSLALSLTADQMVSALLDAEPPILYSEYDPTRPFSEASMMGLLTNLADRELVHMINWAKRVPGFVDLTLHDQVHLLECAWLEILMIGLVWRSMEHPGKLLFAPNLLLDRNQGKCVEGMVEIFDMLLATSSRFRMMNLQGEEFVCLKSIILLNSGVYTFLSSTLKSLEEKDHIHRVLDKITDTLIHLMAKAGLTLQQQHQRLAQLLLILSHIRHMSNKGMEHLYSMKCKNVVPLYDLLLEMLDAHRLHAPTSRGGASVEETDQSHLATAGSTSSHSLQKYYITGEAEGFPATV
Experimental: (§1) A number of compounds were tested for ERα and ERβ binding using Panvera's Fluorescence Polarization Competition Assay Kits (cat. nos. P2698 and P2700). Briefly, ERα or ERβ were thawed on ice from −80° C. An estrogen receptor and fluorescent ligand (Fluormone™) complex was formed at a 15/1 molar ratio for ERα and at a 10/1 molar ratio for ER≈ (2X complex). Serial dilutions of the test compounds were made in assay buffer and the assay was initiated by adding 50 ul of the 2X receptor-ligand complex to 50 ul of compound solution in black 96-well plates. Zero percent competition (theoretical maximum polarization) was measured in wells containing 50 ul of buffer and 50 ul of the 2X receptor-ligand complex. The plates were incubated after gentle shaking in the dark at room temperature. Polarization values (mP) were read no longer than 7 hours after the reaction was started with a FARCyte Fluorescent reader (Amersham) at excitation and emission wavelengths of 485 nm and 535 nm, respectively. Data was analyzed using non-linear regression and IC50 values determined using GraphPad Prism. Estradiol was used as the reference compound.

ERβ = target: T2, ERβ (Homo sapiens, UniProt Q92731); assay: Fluorescence Polarization Competition Assay, ERβ binding (Panvera kit); conditions: for pIC50: ER, fluorescence polarization competition; for ER[…] selectivity Fold Diff: ratio of the two ER binding IC50 values
T2 construct: purchased Panvera P2700
T2 sequence (Q92731 whole entry): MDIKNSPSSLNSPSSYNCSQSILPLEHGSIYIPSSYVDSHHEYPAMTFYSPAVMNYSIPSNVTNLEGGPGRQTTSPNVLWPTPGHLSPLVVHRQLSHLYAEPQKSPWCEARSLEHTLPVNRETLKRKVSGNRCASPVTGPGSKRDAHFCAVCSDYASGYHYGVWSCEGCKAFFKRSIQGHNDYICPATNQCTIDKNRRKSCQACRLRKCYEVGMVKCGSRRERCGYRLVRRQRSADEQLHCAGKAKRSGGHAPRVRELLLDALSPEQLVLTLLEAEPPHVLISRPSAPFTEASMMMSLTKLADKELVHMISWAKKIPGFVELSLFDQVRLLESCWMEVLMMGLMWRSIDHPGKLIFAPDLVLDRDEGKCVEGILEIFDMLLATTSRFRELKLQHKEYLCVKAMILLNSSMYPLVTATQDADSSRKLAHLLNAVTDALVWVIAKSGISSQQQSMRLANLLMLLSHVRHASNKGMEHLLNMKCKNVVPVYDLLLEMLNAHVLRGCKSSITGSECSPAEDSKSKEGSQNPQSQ
Experimental: as §1

[1] = test system: primary rat oligodendrocyte progenitor cells; assay: Oligodendrocyte toxicity assay, protection of oligodendrocyte progenitors (OLP) against SIN-1, LDH release; assay type: cell-based; conditions: 10 nM compound, 1 hour pretreatment, SIN-1 toxin, LDH after 24 hours
Experimental: (§2) Oligodendrocyte Toxicity Assay
(§3) Primary rat oligodendrocyte progenitor cells were obtained from the cerebra of 2-3 day old postnatal rats (Sprague Dawley). The meninges were removed and tissue was mechanically dissociated. Cells were plated on T75 flasks and fed with DMEM +10% FBS.
(§4) Enriched OLPs were collected by mechanical separation from the astrocytic monolayer and were expanded in serum free media (SFM) supplemented with the mitogens, PDGF-AA (10 ng/mI) and FGF-2 (10 ng/mI).
(§5) Cells were plated in 96-well plates, 10,000 per well. Medium was changed to fresh medium and cells were pretreated with compounds for 1 hour. Toxins were added to give the following final concentrations: Sin-10 mM, Camptothecin 1 OM
(§6) After 24 hours, medium was removed and assayed for LDH activity using the Promega cytotox 96 kit (catalog# G1780). Results were calculated as percent protection against toxin-induced toxicity.
(§7) These compounds have been assessed for their efficacy in protection against cell death produced by toxic agents such as SIN-1 (3-morpholino-sydnonimine, producing peroxynitrite) and camptothecin. The target cells assessed in vitro are primary cultures of rodent oligodendrocyte progenitors and their mature counterparts.

mature oligodendrocytes = assay: Oligodendrocyte toxicity assay, protection of mature oligodendrocytes (OL) against SIN-1, LDH release; assay type: cell-based, rat; conditions: 10 nM compound, 1 hour pretreatment, SIN-1 toxin, LDH after 24 hours
Experimental: as §2, §3, §4
To generate mature oligodendrocytes, progenitor cells were switched to SFM supplemented with IGF-1 (10 ng/mi) 24 hours after plating and cells were grown under these conditions for 7 days prior to experimental assays.
as §5, §6, §7

Row | SMILES | pIC50 (ERα) | pIC50 (ERβ) | ER[…] selectivity Fold Diff (ERβ) | % Protection (SIN-1*) OLP 10 nM [1] | % Protection (SIN-1*) OL 10 nM (mature oligodendrocytes)
1 | OCc1cc(Br)c(-c2ccc(O)cc2)c(-n2cccc2)c1 [2-bromo-4′-hydroxy-6-(1H-pyrrol-1-yl)-1,1′-biphenyl]-4-methanol] | 6.39 | 7.82 | 27 Fold | 10% | 15%
2 | OCc1cc(Br)c(-c2ccc(O)cc2)c(Br)c1 [2,6-dibromo-4′-hydroxy-[1,1′-biphenyl]-4-methanol] | 7.22 | 8.05 | 7 Fold | 51% | 11%
3 | O=[N+]([O-])c1cc(CO)cc(Br)c1-c1ccc(O)cc1 [2-bromo-4′-hydroxy-6-nitro-[1,1′-biphenyl]-4-methanol] | 6.90 | 8.10 | 16 Fold | 16% | 12%
4 | OCc1cc(Cl)c(-c2ccc(O)cc2)c(Cl)c1 [2,6-dichloro-4′-hydroxy-[1,1′-biphenyl]-4-methanol] | 7.03 | 7.74 | 5 Fold | 36% | 6%
5 | OCc1cc(Br)c(-c2ccc(O)cc2)c(-c2ccoc2)c1 [2-bromo-6-(furan-3-yl)-4′-hydroxy-[1,1′-biphenyl]-4-methanol] | 6.80 | 8.22 | 25 Fold | 37% | 16%
6 | CN(C)c1cc(CO)cc(Br)c1-c1ccc(O)cc1 [2-bromo-6-dimethylamino-4′-hydroxy-[1,1′-biphenyl]-4-methanol] | 6.38 | 7.43 | 11 Fold | 45% | 12%
